Data: US5338725A, “Anti-aggregatory agents for platelets” (The Research Foundation of the State University of New York, priority 1992, dated 1994)
Starred links: 1 amine or outer side, 2 acyl side, 3 side chain; linkers in the order of their positions; H or OH if unused. Positions of bridges follow the written chain, without caps; N, C: chain ends. Non-standard residues stand in square brackets, D forms with d. Residues, ends and D or L forms follow the SMILES beside them. Chains are numbered I, II in the order given. X2 = O=C(O)CNC(=O)c1cc(N[*:1])cc(N[*:2])c1; 4Abz = Nc1ccc(C(=O)O)cc1

Target: human platelet-rich plasma (Homo sapiens, UniProt P05106+P08514)
Assay: In vitro inhibition of ADP-induced aggregation of human platelet-rich plasma (Coller assay)
Type: cell-based
Conditions: adjusted for fibrinogen concentration (ca. 30 times lower than Coller assay value; 0.1 mg/mL fibrinogen)
Procedure: 1. In vitro Inhibition of Aggregation of Human Platelet-Rich Plasma
Whole blood (10 ml) was collected from human volunteers and anticoagulated by addition of […] of 40% sodium citrate. Platelet-rich plasma (PRP) was prepared by low speed centrifugation (700 G for 3.5 min at 22° C.). The PRP was removed and the remaining blood was centrifuged at 2000 G for 10 min at 22 ° C. to obtain platelet poor plasma (PPP). The PRP was diluted with PPP to give a final platelet count of 300 000μL with a Coulter Acounter Model ZM (Coulter, Hialeah, Fla.). This diluted PRP (400μL) was placed in a siliconized glass cuvette equipped with a magnetic stirrer and stirred at 1200 rpm at 37° C. Various concentrations of the peptides (36μL) in TRIS buffer (0.01 M TRIS, 0.15 M NaCl, and 0.05% sodium azide, pH 7.4) was added and incubated for 3 rain before platelet aggregation was induced by addition of 54μL of 100μM ADP in HEPES buffer (0.01 M HEPES and 0.15 M NaCl, pH 7.5). The platelet aggregation was determined by a change in light transmission through the PRP on a Lumi Aggregometer 400rS (ChronoLog, Hayertown, PA). The ability of the peptides to inhibit platelet aggregation was evaluated and the IC50 was determined as the concentration of peptide required to produce 50% inhibition of the response to ADP in the presence of the TRIS buffer.
The assay system developed by Coller, which is used throughout the experiment, is different from conventional assay systems in certain aspects. First, the platelets used by Plow et al., Blood, 70, 110 (1987); and Garsky et al., Proc. Natl. Acad. Sci. U.S.A., 86, 4022 (1989) are gel-filtered to remove plasma proteins. Since the gel-filtration treatment may decrease the reactivity of the platelets, our assay avoids this step. The platelet count is adjusted by simply mixing PRP and PPP, which minimizes alterations of the platelets. Second, fibrinogen concentration in the Coller system is different from that of others. As shown in the experimental description of the assay, PRP was obtained from fresh blood and used immediately without further manipulation except for count adjustment. According to measurements obtained using this assay, such plasma contains ca. 3 mg of fibrinogen per 1 mL of plasma. On the other hand, fibrinogen concentration used in the Garsky and Plow assay system is 0.1 mg/mL. The concentration of fibrinogen affects the amount of RGD peptide required to inhibit platelet aggregation, with higher fibrinogen concentrations resulting in higher IC50 values. If there is a linear relationship between these two parameters, the IC50 values obtained from the Coller assay should be ca. 30 times larger than those obtained from the Plow et al. assay or the Garsky et al. assay. The adjusted IC50 values are presented in column 4 of Table showing the inhibitory activities of RGD peptides.
The following peptides were synthesized, and their amino acid contents were analyzed as described in procedures 3-7, above. In addition, their ability to inhibit aggregation of human platelet rich plasma was assessed as described in procedures 1 and 2, above. Their respective IC50 values, as well as their estimated IC50 adjusted to the values according the method of Plow et al., (vide supra) are listed in Table 1.

Sequence of human platelet-rich plasma (P08514 32-1039): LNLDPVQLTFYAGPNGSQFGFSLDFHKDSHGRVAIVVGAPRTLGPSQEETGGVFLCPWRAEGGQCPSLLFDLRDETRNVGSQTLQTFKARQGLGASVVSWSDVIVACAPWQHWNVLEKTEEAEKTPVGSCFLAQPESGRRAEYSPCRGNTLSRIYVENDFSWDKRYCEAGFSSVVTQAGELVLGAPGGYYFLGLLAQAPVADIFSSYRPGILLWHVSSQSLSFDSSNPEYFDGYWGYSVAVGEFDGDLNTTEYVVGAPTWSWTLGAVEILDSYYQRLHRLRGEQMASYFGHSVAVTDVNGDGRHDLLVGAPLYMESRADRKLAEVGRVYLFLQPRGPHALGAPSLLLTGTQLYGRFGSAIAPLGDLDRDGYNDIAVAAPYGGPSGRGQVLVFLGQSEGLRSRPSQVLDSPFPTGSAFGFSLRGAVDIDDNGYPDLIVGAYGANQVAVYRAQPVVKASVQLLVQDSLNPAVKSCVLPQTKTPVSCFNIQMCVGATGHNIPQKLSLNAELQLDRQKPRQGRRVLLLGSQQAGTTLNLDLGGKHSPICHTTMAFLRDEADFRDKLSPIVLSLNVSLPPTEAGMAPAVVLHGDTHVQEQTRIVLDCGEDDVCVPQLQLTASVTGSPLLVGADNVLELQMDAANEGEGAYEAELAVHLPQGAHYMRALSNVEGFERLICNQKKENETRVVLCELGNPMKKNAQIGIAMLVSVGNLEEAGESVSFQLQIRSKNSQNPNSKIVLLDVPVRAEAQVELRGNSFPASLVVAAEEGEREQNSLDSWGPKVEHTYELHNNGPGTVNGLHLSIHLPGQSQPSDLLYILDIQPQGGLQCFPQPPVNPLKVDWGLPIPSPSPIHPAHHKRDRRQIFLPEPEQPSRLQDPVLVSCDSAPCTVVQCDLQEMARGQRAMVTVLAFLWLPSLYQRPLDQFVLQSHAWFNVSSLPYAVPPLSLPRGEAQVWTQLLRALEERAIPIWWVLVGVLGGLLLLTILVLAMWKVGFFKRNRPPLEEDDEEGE
Sequence of human platelet-rich plasma (P05106 27-788): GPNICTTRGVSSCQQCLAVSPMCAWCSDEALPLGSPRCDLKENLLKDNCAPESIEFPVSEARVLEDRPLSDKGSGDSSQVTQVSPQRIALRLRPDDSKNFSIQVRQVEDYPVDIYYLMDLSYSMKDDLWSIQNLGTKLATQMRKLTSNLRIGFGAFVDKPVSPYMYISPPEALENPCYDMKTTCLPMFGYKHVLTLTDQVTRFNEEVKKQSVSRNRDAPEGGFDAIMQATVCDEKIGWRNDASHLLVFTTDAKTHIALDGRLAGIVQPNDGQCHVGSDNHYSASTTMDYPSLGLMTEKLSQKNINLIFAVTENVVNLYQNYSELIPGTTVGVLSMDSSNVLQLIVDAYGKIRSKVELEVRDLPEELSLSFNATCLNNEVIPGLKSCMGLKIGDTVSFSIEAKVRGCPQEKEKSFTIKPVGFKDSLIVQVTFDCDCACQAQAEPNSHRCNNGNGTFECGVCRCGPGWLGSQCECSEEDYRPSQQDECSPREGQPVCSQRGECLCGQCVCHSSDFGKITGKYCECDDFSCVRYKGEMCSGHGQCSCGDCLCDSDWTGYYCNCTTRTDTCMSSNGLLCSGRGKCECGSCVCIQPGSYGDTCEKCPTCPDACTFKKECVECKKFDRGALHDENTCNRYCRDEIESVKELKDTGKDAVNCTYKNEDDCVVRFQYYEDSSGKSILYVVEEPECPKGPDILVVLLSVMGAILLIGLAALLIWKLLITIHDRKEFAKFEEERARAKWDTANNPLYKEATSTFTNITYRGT

IC50 (M)* Estimated IC50 adjusted to the values by the method of Plow et al. [M]	Structure (SMILES)
6.7e-07	N=C(N)NCCC[C@H](N)C(=O)NCC(=O)N[C@@H](CC(=O)O)C(=O)N[C@@H](Cc1ccccc1)C(=O)N1CCC[C@H]1C(=O)NCC(=O)Nc1cc(NC(=O)CNC(=O)[C@@H]2CCCN2C(=O)[C@H](Cc2ccccc2)NC(=O)[C@H](CC(=O)O)NC(=O)CNC(=O)[C@@H](N)CCCNC(=N)N)cc(C(=O)NCC(=O)O)c1 [Example 1, (RGDFPG)2 Dab--G--OH] (I: H-RGDFPG / II: H-RGDFPG; linker I:C-II:C via X2; N-terminus assumed)
2.1e-06	N=C(N)NCCC[C@H](NC(=O)CN)C(=O)NCC(=O)N[C@@H](CC(=O)O)C(=O)N[C@@H](Cc1ccccc1)C(=O)NCC(=O)Nc1ccc(C(=O)NCC(=O)N[C@@H](CCCNC(=N)N)C(=O)NCC(=O)N[C@@H](CC(=O)O)C(=O)N[C@@H](Cc2ccccc2)C(N)=O)cc1 [Example 24, GRGDFG--(p)Abz--GRGDF--NH2] (H-GRGDFG[4Abz]GRGDF-NH2)
